In patent publication US10640520B2, “Boronic acid derivatives” (MERCK PATENT GMBH, priority 2014, dated 2020):

Key:
LMP7 = LMP7 (Homo sapiens, UniProt P20618+P28062); test: Determination of LMP7 activity (fluorescence intensity assay, Suc-LLVY-AMC); assay type: biochemical; details: purified human immunoproteasome
Protocol: Determination of LMP7 Activity:
Measurement of LMP7 inhibition is performed in 384 well format based on fluorescence intensity assay.
(§1) Purified human immunoproteasome (0.25 nM) and serial diluted compounds in DMSO (range of concentrations from 30 μM to 15 pM) or controls are incubated for 20 minutes or 120 minutes (long incubation) at 25° C. in assay buffer containing 50 mM Tris pH 7.4, 0.03% SDS, 1 mM EDTA and 1% DMSO. The reaction is initiated by the addition of the fluorogenic peptide substrate, Suc-LLVY-AMC (Bachem 1-1395), at a concentration of 40 μM. After 60 minutes of incubation at 37° C., fluorescence intensity is measured at λex=350 nm and λem=450 nm with a fluorescence reader (Perkin Elmer Envision reader or equivalent).
(§2) Unless indicated otherwise the results are obtained after incubation for 20 minutes.

Beta5 = Beta5 (Homo sapiens, UniProt P20618+P28074); test: Determination of Beta5 activity (fluorescence intensity assay, Suc-LLVY-AMC); assay type: biochemical; details: for IC50: purified human constitutive proteasome
Protocol: Determination of Beta5 Activity:
Measurement of Beta5 inhibition is performed in 384 well format based on fluorescence intensity assay.
as §1, with “constitutive proteasome (1.25” for “immunoproteasome (0.25”, “[…])” for “pM)”
as §2

[1] = molecular target: LMP7 subunit of the immunoproteasome (Homo sapiens, UniProt P20618+P28062); details: Singh et al., Br. J. Hematology 152(2): 155-163; cited from earlier work

Compound	IC50 (LMP7; incubation for 20 minutes) [nM]	Selectivity LMP7 vs Beta5 (Beta5; incubation for 20 minutes)	IC50 (Beta5; incubation for 20 minutes) [nM]	IC50 (LMP7; long incubation (120 min)) [nM]	Selectivity LMP7 vs Beta5 (Beta5; long incubation (120 min))	IC50 (Beta5; long incubation (120 min)) [nM]	selectivity for the LMP7 subunit of the immunoproteasome [1] [fold]
O=C(CCN1CCOCC1=O)N[C@@H](Cc1coc2ccccc12)B(O)O [Compound 28, [(1R)-2-(benzofuran-3-yl)-1-[3-(3-oxomorpholin-4-yl)propanoylamino]-ethyl]boronic acid]	< 50	++ (10 ≤ Selectivity < 30)	50 to 500	–	–	–	–
O=C(CCN1CC(c2ccccc2)OC1=O)N[C@@H](Cc1coc2ccccc12)B(O)O (stereo partly drawn) [Compound 29, [(1R)-2-(benzofuran-3-yl)-1-[3-(2-oxo-5-phenyl-oxazolidin-3-yl)propanoylamino]ethyl]boronic acid]	< 50	++ (10 ≤ Selectivity < 30)	< 50	–	–	–	–
O=C(CCN1CCCOC1=O)N[C@@H](Cc1coc2ccccc12)B(O)O [Compound 30, [(1R)-2-(benzofuran-3-yl)-1-[3-(2-oxo-1,3-oxazinan-3-yl)propanoylamino]ethyl]boronic acid]	< 50	+++ (30 ≤ Selectivity < 50)	50 to 500	–	–	–	–
Cc1ccc(C[C@H](NC(=O)CCN2CCCCC2=O)B(O)O)c(C)c1 [Compound 31, [(1R)-2-(2,4-dimethylphenyl)-1-[3-(2-oxo-1-piperidyl)propanoylamino]-ethyl]boronic acid]	< 50	+++++ (Selectivity ≥ 70)	500 to 5000	–	–	–	–
Cc1ccc(C[C@H](NC(=O)CCN2CCCCS2(=O)=O)B(O)O)c(C)c1 [Compound 32, [(1R)-2-(2,4-dimethylphenyl)-1-[3-(1,1-dioxothiazinan-2-yl)propanoylamino]ethyl]boronic acid]	< 50	+++ (30 ≤ Selectivity < 50)	500 to 5000	–	–	–	–
O=C(CN1C(=O)CSC1=O)N[C@@H](Cc1coc2ccccc12)B(O)O [Compound 33, [(1R)-2-(benzofuran-3-yl)-1-[[2-(2,4-dioxothiazolidin-3-yl)acetyl]-amino]ethyl]boronic acid]	< 50	++ (10 ≤ Selectivity < 30)	50 to 500	–	–	–	–
CCN1CCN(CCC(=O)N[C@@H](Cc2coc3ccccc23)B(O)O)C(=O)C1=O [Compound 34, [(1R)-2-(benzofuran-3-yl)-1-[3-(4-ethyl-2,3-dioxo-piperazin-1-yl)propanoylamino]ethyl]boronic acid]	< 50	++ (10 ≤ Selectivity < 30)	50 to 500	–	–	–	–
CN1CCN(CCC(=O)N[C@@H](Cc2coc3ccccc23)B(O)O)C(=O)C1 [Compound 35, [(1R)-2-(benzofuran-3-yl)-1-[3-(4-methyl-2-oxo-piperazin-1-yl)propanoylamino]ethyl]boronic acid]	< 50	++ (10 ≤ Selectivity < 30)	50 to 500	–	–	–	–
Cc1ccc(C[C@H](NC(=O)C2CCC(=O)N2c2ccccc2)B(O)O)c(C)c1 (stereo partly drawn) [Compound 36, [(1R)-2-(2,4-dimethylphenyl)-1-[(5-oxo-1-phenyl-pyrrolidine-2-carbonyl)amino]-ethyl]boronic acid]	50 to 500	+++ (30 ≤ Selectivity < 50)	500 to 5000	–	–	–	–
O=C(N[C@@H](Cc1coc2ccccc12)B(O)O)C1CCCN1c1ccccc1 (stereo partly drawn) [Compound 37, [(1R)-2-(benzofuran-3-yl)-1-[(1-phenylpyrrolidine-2-carbonyl)amino]ethyl]boronic acid]	< 50	+++++ (Selectivity ≥ 70)	500 to 5000	–	–	–	–
Cc1cccc2c(C[C@H](NC(=O)CCN3C(=O)CCC3(C)C)B(O)O)coc12 [Compound 38, [(1R)-1-[3-(2,2-dimethyl-5-oxo-pyrrolidin-1-yl)propanoylamino]-2-(7-methylbenzofuran-3-yl)ethyl]boronic acid]	–	–	–	< 50	+++++ (Selectivity ≥ 70)	500 to 5000	–
O=C(CCN1CCCC1=O)N[C@@H](C[C@@H]1COc2ccccc21)B(O)O [Compound 39, [(1R)-2-[(3S)-2,3-dihydrobenzofuran-3-yl]-1-[3-(2-oxopyrrolidin-1-yl)propanoylamino]ethyl]boronic acid]	–	–	–	< 50	+++++ (Selectivity ≥ 70)	500 to 5000	–
Cc1cccc2c1OC[C@H]2C[C@H](NC(=O)CCN1CCCCC1=O)B(O)O [Compound 40, [(1R)-2-[(3S)-7-methyl-2,3-dihydrobenzofuran-3-yl]-1-[3-(2-oxo-1-piperidyl)propanoylamino]ethyl]boronic acid]	–	–	–	< 50	+++++ (Selectivity ≥ 70)	> 5000	–
CC1=C(C(=O)N[C@H](C)C(=O)N[C@@H](Cc2c[nH]c3ccccc23)C(=O)N[C@@H](Cc2ccccc2)C(=O)[C@@]2(C)CO2)Cc2ccccc21 [PR-924]	–	–	–	–	–	–	100
